# Values quoted from earlier work in patent US20120289567A1, “COMBINATIONS OF DARIFENACIN AND SALIVARY STIMULANTS FOR THE TREATMENT OF OVERACTIVE BLADDER” (THERAVIDA, INC., priority 2011, published 2012).
# Conditions: 5 mg of pilocarpine
compound,measurement,value
CC[C@@H]1C(=O)OC[C@@H]1Cc1cncn1C [pilocarpine],time of maximum saliva output after administration,about 30 minutes
